Assay results from US20220135567A1, “TYK2 PSEUDOKINASE LIGANDS” (Ventyx Biosciences, Inc., priority 2019, published 2022).

What follows are compounds tested on IFN-a/Jak1Tyk2 (assay: Co-stimulation assay in lysed whole blood: IFNa (JAK1/TYK2) stimulated STAT1 phosphorylation). Details: 20 min, lysed human whole blood, IFNa 100 ng/mL + GM-CSF 10 ng/mL, pSTAT1 by flow cytometry.
Type: cell-based
Method: Dilute RBC lysis buffer to 1× in distilled water. Add 2 mL blood to 38 mL of 1×RBC-lysis buffer. Incubate for 15 mins at RT, in dark. Spin at 300 g, 5 mins, to collect the pellet. Re-lyse if necessary. Re-suspend pellet in 5 mL of cRPMI.
Aliquot 80 μL of lysed human blood in to wells of 96 deep-well plate. Add 10 μl of (10× conc.) of different concentrations of compounds to all wells except controls (unstained and unstimulated) and mix it with the help of 100 uL multichannel. Add 10 uL of RPMI media in controls. For dilution of compounds and dilution range please refer Appendix. Incubate on water bath or CO2 incubator for 1 hour at 37° C. Add 10 μl of (10× conc.) of cytokine mix (GM-CSF and IFNa) (final conc. 10 ng/mL of GM-CSF and 100 ng/mL of IFNa) to each well except unstimulated and unstained controls and incubate further for 20 minutes on water bath at 37° C.
Add 900 μL of prewarmed 1× Fix/Lyse solution (Appendix) and mix it properly using 1000 μl multichannel, incubate further on water bath at 37° C. for 10 minutes (which includes time of addition). Centrifuge at 800×g for 5 minutes at 40° C.; remove 900 uL of supernatant and add 900 μL of 1×PBS. Centrifuge at 800×g for 5 minutes at 40° C., remove 900 μL of supernatant. Wash one more time with 900 μL of PBS (optional) and resuspend pellets in 100 uL of PBS.
Disrupt the pellet by gentle tapping and resuspend in 1000 μL of BD Phosflow Perm Buffer III and incubate plate on ice for 30 minutes. Centrifuge plate at 800×g for 5 minutes at 40° C. Wash two more times with 1000 μL of BD Pharmingen Stain Buffer.
Disrupt the pellet by gentle tapping. Resuspend pellets in 100 uL of Stain Buffer and add 5 μL of pSTAT5_AF488 Ab and 5 uL of pSTAT1_PE in all wells except unstained control and mix properly using 200 μl multichannel, incubate overnight at […]. Add 900 μL of wash buffer and centrifuge at 1800 rpm for 3 minutes at […]. Wash one more time with 1000 μL of BD Pharmingen Stain Buffer. Finally resuspend the pellet in 300 uL of BD Pharmingen Stain Buffer. Transfer the cells to 96-well v-bottom plate and acquire the cells in Beckman Coulter CytExpert. Acquiring cells in Flow Cytometer: Keep the threshold value to 250 and cell concentration should not exceed 100-500 cells/μL. Acquire at least 5,000-10,000 cells.
Cytokine dilution: 1) GM-CSF Stock at 100 ug/mL. Prepare an intermediate dilution of 1 ug/mL by adding 2 uL of stock into 198 uL of cRPMI. Further dilute to 100 ng/mL by adding 100 uL of the intermediate stock to 900 uL of cRPMI. 2) IFNa Stock at 200 ug/mL. Dilute IFNa stock 1:200 by adding 5 uL of stock into the 1000 uL of 100 ng/mL GM-CSF working stock as above to give a combined working stock of 1000 ng/mL of IFNa and 100 ng/mL GM-CSF (10×). Keep it on ice until used.
Lyse/Fix buffer preparation: Dilute 5× Lyse/Fix buffer to 1× using MQ water and keep at 37° C. until used.
BD Phosflow perm buffer III: Keep on ice/fridge.

CNc1cc(Nc2cccn(-c3ccc(OC)nn3)c2=O)nc2c(C(=O)NCC(F)(F)F)cnn12 [Compound 67, 5-((1-(6-methoxypyridazin-3-yl)-2-oxo-1,2-dihydropyridin-3-yl)amino)-7-(methylamino)-N-(2,2,2-trifluoroethyl)pyrazolo[1,5-a]pyrimidine-3-carboxamide] and CNC(=O)c1cnn2c(NC)cc(Nc3cc(F)cc(F)c3OC)nc12 [Compound 71, 5-((3,5-difluoro-2-methoxyphenyl)amino)-N-methyl-7-(methylamino)pyrazolo[1,5-a]pyrimidine-3-carboxamide] fall in the same range of IC50: 1000 to 10000 nM for the first, 1000 to 10000 nM for the second.

First: CNc1cc(Nc2cccc3c2OCCO3)nc2c(C(=O)NC3CCOC3)cnn12 (stereo not shown) [Compound 68, 5-((2,3-dihydrobenzo[b][1,4]dioxin-5-yl)amino)-7-(methylamino)-N-(tetrahydrofuran-3-yl)pyrazolo[1,5-a]pyrimidine-3-carboxamide]
Second: CNc1cc(Nc2cccc3c2OCCO3)nc2c(C(=O)NC3CC(C)(O)C3)cnn12 (stereo not shown) [Compound 75, 5-((2,3-dihydrobenzo[b][1,4]dioxin-5-yl)amino)-N-(3-hydroxy-3-methylcyclobutyl)-7-(methylamino)pyrazolo[1,5-a]pyrimidine-3-carboxamide]
The IC50 of the first is higher: 100 to 1000 nM for the first, < 100 nM for the second. The second is the more potent here.

First: CNc1cc(Nc2ccnn2CCO)nc2c(C(=O)NC3CC3)cnn12 [Compound 69, N-cyclopropyl-5-((1-(2-hydroxyethyl)-1H-pyrazol-5-yl)amino)-7-(methylamino)pyrazolo[1,5-a]pyrimidine-3-carboxamide]
Second: CNc1cc(Nc2ccnn2CC(F)(F)F)nc2c(C(=O)NC3CC3)cnn12 [Compound 70, N-cyclopropyl-7-(methylamino)-5-((1-(2,2,2-trifluoroethyl)-1H-pyrazol-5-yl)amino)pyrazolo[1,5-a]pyrimidine-3-carboxamide]
The IC50 of the first is higher: 1000 to 10000 nM for the first, 100 to 1000 nM for the second. The second is the more potent here.

CCNc1cc(Nc2cc(C)cc(C)c2)nc2c(C(N)=O)cnn12 [Compound 72, 5-((3,5-dimethylphenyl)amino)-7-(ethylamino)pyrazolo[1,5-a]pyrimidine-3-carboxamide] and CNc1cc(Nc2cc(F)cc(F)c2OC)nc2c(C(N)=O)cnn12 [Compound 74, 5-((3,5-difluoro-2-methoxyphenyl)amino)-7-(methylamino)pyrazolo[1,5-a]pyrimidine-3-carboxamide] cannot be ordered by IC50: 100 to 1000 nM for the first, > 300 nM for the second.

CNc1cc(Nc2cc(F)cc(F)c2OC)nc2c(C(=O)NC3CC3F)cnn12 (stereo not shown) [Compound 73, 5-((3,5-difluoro-2-methoxyphenyl)amino)-N-(2-fluorocyclopropyl)-7-(methylamino)pyrazolo[1,5-a]pyrimidine-3-carboxamide] and [2H]C([2H])([2H])Nc1cc(Nc2cc(F)cc3c2OCCO3)nc2c(C(=O)N[C@H]3C[C@H]3F)cnn12 [Compound 79, 5-((7-fluoro-2,3-dihydrobenzo[b][1,4]dioxin-5-yl)amino)-N-((1S,2R)-2-fluorocyclopropyl)-7-((methyl-d3)amino)pyrazolo[1,5-a]pyrimidine-3-carboxamide] cannot be ordered by IC50: < 100 nM for the first, < 100 nM for the second.

First: [2H]C([2H])([2H])Nc1cc(Nc2cc(F)cc3c2OCCO3)nc2c(C(N)=O)cnn12 [Compound 76, 5-((7-fluoro-2,3-dihydrobenzo[b][1,4]dioxin-5-yl)amino)-7-((methyl-d3)amino)pyrazolo[1,5-a]pyrimidine-3-carboxamide]
Second: [2H]C([2H])([2H])NC(=O)c1cnn2c(NC([2H])([2H])[2H])cc(Nc3cc(F)cc4c3OCCO4)nc12 [Compound 78, 5-((7-fluoro-2,3-dihydrobenzo[b][1,4]dioxin-5-yl)amino)-N-(methyl-d3)-7-((methyl-d3)amino)pyrazolo[1,5-a]pyrimidine-3-carboxamide]
The IC50 of the first is lower: < 100 nM for the first, 100 to 1000 nM for the second.

[2H]C([2H])([2H])Nc1cc(Nc2cc(Cl)cc3c2OCCO3)nc2c(C(=O)NC3CC3)cnn12 [Compound 77, 5-((7-chloro-2,3-dihydrobenzo[b][1,4]dioxin-5-yl)amino)-N-cyclopropyl-7-((methyl-d3)amino)pyrazolo[1,5-a]pyrimidine-3-carboxamide] was tested, and the IC50 was < 100 nM.
